# Experimental data: US20250195601A1, “TURMERIC OIL ESSENTIAL-OIL BISABOLENE SESQUITERPENOIDS IN THE TREATMENT OF NON-NEURODEGENERATIVE DISEASES” (UNIVERSIDAD DE CUENCA, priority 2023, published 2025)
# How the values were obtained:
# Assay type in all cases: in vivo, human
# [1] = tested on: patient with mixed cerebral palsy, epilepsy, constipation, mental retardation; test: Clinical course, Case 4; conditions: with baclofen, before turmeric oil
# Description: Patient. They were the child of non-consanguineous parents, born of a twin pregnancy by cesarean section at 30 weeks' gestation. The patient had multiple complications in their neonatal period with prolonged mechanical ventilation, including neuro-infection and neonatal seizures.
# Central hypotonia and peripheral hypertonia, dystonia and dyskinesia, ROT++++/++, bilateral plantar flexor reflex were present.
# No advances regarding […] neurological condition were identified. The pharmacological therapy included baclofen to improve muscle tone and levetiracetam to control seizures.
# Scoliosis, retractions, and joint deformities were still visible. Dystonias and dyskinesias were persistent.
# In the subsequent 7.5 years, the patient had epileptic seizures of irregular onset and insufficient advances in their motor development. Administration of turmeric oil began with a dose of 27 mg per day.
# [2] = tested on: patient with executive functions impairment, epilepsy, mental retardation, attention deficit; test: Clinical course, Case 1; conditions: before turmeric oil
# Procedure: […], due to their academic failure and their refusal to continue taking methylphenidate, it was decided to start using turmeric oil in a dosage of 36 mg/day.
# The turmeric oil and two anticonvulsants (valproic acid and clobazam) were administered to the patient.
# Conversely, a cognitive enrichment in the patient's profile was evident. This enhancement was reflected in their academic performance and […] general life development. The patient presented seizures relapse and maintained antiepileptic drugs administration.
# [3] = tested on: patient with Guillain-Barré syndrome, flaccid tetraplegia; test: Clinical course and muscle strength, Case 5; conditions: after three weeks of hospitalization, before turmeric oil
# Description: Patient. They were the child of non-consanguineous parents. Parents referred that one day the patient woke up but could not walk. Noteworthy, the day before this event, they received a COVID vaccine. The patient was taken to a hospital and evaluated in the emergency room. Demyelinating motor polyradiculoneuropathy of severe degree with distal predominance, more significant in lower extremities was reported after performing electromyography and nerve conduction velocity analysis. On the third day at the hospital, the patient lost walking, sitting, neck control and lower and upper extremities mobility. No mechanical ventilation was required.
# Thus, the patient was prostrate, and it was recommended to start administering turmeric oil in a dose of 21.6 mg per day.
compound,measurement,setting,value
CC[C@@H](C(N)=O)N1CCCC1=O [levetiracetam],seizures,[1],not controlled
"COC(=O)C(c1ccccc1)C1CCCCN1 (stereo not drawn) [prolonged-release methylphenidate, methylphenidate]",result of methylphenidate treatment,[2],poor results
gamma globulin,condition at discharge,[3],no improvement
